{"source": "patent US20060111347A1", "about": "“Substituted sulfones and methods of use” (AMGEN INC., priority 2004, published 2006)", "origin": "cited, not measured here", "conditions": "degraded by peptidases", "note": "No end group written: not given here.", "data": [{"sequence": "RPPGFSPFR [BK, Bradykinin]", "values": [{"measurement": "half-life of BK in plasma", "result": "approximately 17 seconds"}]}]}
